Data reported in ChEMBL document CHEMBL1201862, “PubChem BioAssay data set” (2004).
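Protocol summary: plate cells (96-well), add compound at 5 concentrations, incubate 48 h, interpolate endpoints linearly. The concentration for 50% growth inhibition is given as GI50.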 Calls of active or inactive are those of the source. Rule as the data show it: active = GI50 up to about 1.1 µM and inactive = higher.

Experiments:
Assay in all cases: NCI anticancer screen, dose series, 48 h
[1] = test system: RPMI-8226
[2] = test system: PC-3
[3] = test system: OVCAR-5
[4] = test system: SK-OV-3
[5] = test system: HOP-92
[6] = test system: SN12C
[7] = test system: MDA-N
[8] = test system: IGROV-1
[9] = test system: MDA-MB-435
[10] = test system: HCC 2998
[11] = test system: MDA-MB-231
[12] = test system: SK-MEL-5
[13] = test system: OVCAR-4
[14] = test system: KM12
[15] = test system: CAKI-1
[16] = test system: SNB-75
[17] = test system: Malme-3M
[18] = test system: SK-MEL-28
[19] = test system: TK-10
[20] = test system: DU-145
[21] = test system: SF-268
[22] = test system: SR
[23] = test system: MOLT-4
[24] = test system: HOP-62
[25] = test system: SK-MEL-2
[26] = test system: HCT-15
[27] = test system: M14
[28] = test system: SNB-19
[29] = test system: EKVX
[30] = test system: UACC-257
[31] = test system: NCI-H23
[32] = test system: U-251
[33] = test system: UO-31
[34] = test system: A498
[35] = test system: COLO 205
[36] = test system: HCT-116
[37] = test system: UACC-62
[38] = test system: NCI-H522
[39] = test system: OVCAR-3
[40] = test system: HT-29
[41] = test system: BT-549
[42] = test system: CCRF-CEM
[43] = test system: SF-295
[44] = test system: A549
[45] = test system: NCI-H460
[46] = test system: SW-620

In the case of O=C(c1ccc(Cl)cc1Cl)N1CCN(C(=O)c2ccc(Cl)cc2Cl)C1=S, the GI50 [1] is reported as 12.9 µM (inactive).

COc1ccc(CC(CO)NC(=O)OCc2ccccc2)cc1Oc1ccc(CC(CO)NC(=O)OCc2ccccc2)cc1 (stereo not drawn) was tested, and the GI50 [2] was 11.2 µM (inactive), the GI50 [3] was 15 µM (inactive) and the GI50 [4] was 13.4 µM (inactive). For the same compound, the GI50 [5] was 18.3 µM (inactive), the GI50 [6] was 16.7 µM (inactive) and the GI50 [7] was 15.6 µM (inactive). The GI50 [8] was 11 µM (inactive), the GI50 [9] was 15.3 µM (inactive) and the GI50 [10] was 21.2 µM (inactive). For the same compound, the GI50 [11] was 13.1 µM (inactive), the GI50 [12] was 5.09 µM (inactive) and the GI50 [13] was 27.9 µM (inactive). The GI50 [14] was 12.2 µM (inactive), the GI50 [15] was 20.4 µM (inactive) and the GI50 [16] was 0.37 µM (active). The GI50 [17] was 7.91 µM (inactive), the GI50 [18] was 18.3 µM (inactive) and the GI50 [19] was 19.4 µM (inactive). For the same compound, the GI50 [20] was 15.4 µM (inactive), the GI50 [21] was 7.82 µM (inactive) and the GI50 [22] was 26.7 µM (inactive). The GI50 [23] was 3.43 µM (inactive), the GI50 [24] was 15.3 µM (inactive) and the GI50 [25] was 16.1 µM (inactive). The GI50 [26] was 29.4 µM, the GI50 [27] was 10.7 µM (inactive) and the GI50 [28] was 19 µM (inactive). The GI50 [29] was 3.85 µM (inactive), the GI50 [1] was 6.27 µM (inactive) and the GI50 [30] was 17 µM (inactive). The GI50 [31] was 16.5 µM (inactive), the GI50 [32] was 21.2 µM (inactive) and the GI50 [33] was 14.3 µM (inactive). For the same compound, the GI50 [34] was 15.5 µM (inactive), the GI50 [35] was 23.1 µM (inactive) and the GI50 [36] was 15.1 µM (inactive). For the same compound, the GI50 [37] was 11.5 µM (inactive), the GI50 [38] was 1.47 µM (inactive) and the GI50 [39] was 13.1 µM (inactive). For the same compound, the GI50 [40] was 11.1 µM (inactive), the GI50 [41] was 12.4 µM (inactive) and the GI50 [42] was 5.77 µM (inactive). The GI50 [43] was 11.6 µM (inactive), the GI50 [44] was 11.7 µM (inactive) and the GI50 [45] was 15.7 µM (inactive). The GI50 [46] was 32.2 µM (inactive).

With CO[C@](C(=O)OC[C@H]1[C@@H](COC(C)=O)[C@@H]2O[C@H]1c1cc3c(cc12)OCO3)(c1ccccc1)C(F)(F)F the GI50 [2] was 19.4 µM (inactive), the GI50 [3] was 30.9 µM (inactive) and the GI50 [4] was 89.7 µM (inactive). For the same compound, the GI50 [5] was 34 µM (inactive), the GI50 [6] was 25.1 µM (inactive) and the GI50 [7] was 38.3 µM (inactive). For the same compound, the GI50 [8] was 12.7 µM (inactive), the GI50 [9] was 38.5 µM (inactive) and the GI50 [10] was 23.8 µM (inactive). For the same compound, the GI50 [11] was 30.8 µM (inactive), the GI50 [12] was 32.9 µM (inactive) and the GI50 [13] was 40.4 µM (inactive). The GI50 [14] was 14.2 µM (inactive), the GI50 [15] was 32.8 µM (inactive) and the GI50 [16] was 20.4 µM (inactive). For the same compound, the GI50 [17] was > 100 µM (inactive), the GI50 [18] was 41.3 µM (inactive) and the GI50 [19] was 38.3 µM (inactive). The GI50 [20] was 34.9 µM (inactive), the GI50 [21] was 30.7 µM (inactive) and the GI50 [22] was 21.2 µM (inactive). The GI50 [23] was 19.4 µM (inactive), the GI50 [24] was 26.2 µM (inactive) and the GI50 [25] was 28.6 µM (inactive). For the same compound, the GI50 [26] was 7.46 µM, the GI50 [27] was 35.9 µM (inactive) and the GI50 [28] was 50.4 µM (inactive). The GI50 [29] was 27 µM (inactive), the GI50 [1] was 3.68 µM (inactive) and the GI50 [30] was 40.5 µM (inactive). For the same compound, the GI50 [31] was 19.1 µM (inactive), the GI50 [32] was 36.5 µM (inactive) and the GI50 [33] was 10.4 µM (inactive). For the same compound, the GI50 [34] was 28.5 µM (inactive), the GI50 [35] was 28.6 µM (inactive) and the GI50 [36] was 13.6 µM (inactive). The GI50 [37] was 19.6 µM (inactive), the GI50 [38] was 4.26 µM (inactive) and the GI50 [39] was 27 µM (inactive). The GI50 [40] was 39.2 µM (inactive), the GI50 [41] was 22.9 µM (inactive) and the GI50 [42] was 7.19 µM (inactive). The GI50 [43] was 18 µM (inactive), the GI50 [44] was 17.5 µM (inactive) and the GI50 [45] was 13.4 µM (inactive). For the same compound, the GI50 [46] was 95.9 µM (inactive).
